Holding throughout (assay): microbe, parasite or virus in culture
What all share (format): cell-based

In experiment [1] the test system is HCV 1a RLuc cells (dicistronic genotype 1a H77 replicon, RLuc reporter). The settings on record: genotype 1a H77 replicon, read-out: 1a. The procedure:
(§1) Evaluation of cell-based anti-HCV activity: Antiviral potency (EC50) was determined using a Renilla luciferase (RLuc)-based HCV replicon reporter assay. To perform the assay for genotype 1 and 2a JFH-1, HCV 1b RLuc cells (harboring a dicistronic genotype 1b Con1 replicon that encodes a RLuc reporter), or HCV 1a RLuc cells (harboring a dicistronic genotype 1a H77 replicon that encodes a RLuc reporter), or HCV 2a JFH-1 Rluc cells (harboring a dicistronic genotype 2a JFH-1 replicon that encodes a RLuc reporter) were dispensed into 384-well plates. To perform the assay for genotype 2a (with M31 present) or 2b, HCV 2a Rluc or 2b Rluc cells (both with M31 present) harboring a dicistronic NS5A chimeric genotype 2a JFH-1 replicon that encodes a RLuc reporter and either genotype 2a J6 strain NS5A gene or genotype 2b MD2b-1 NS5A gene (based on Los Alamos HCV database isolates, both with M31 present) respectively, were dispensed into 384-well plates. To perform the assay for genotype 3 and 4, HCV 3a RLuc or 4a Rluc cells harboring a dicistronic NS5A chimeric genotype 1b Con1 replicon that encodes a RLuc reporter and either a consensus genotype 3a NS5A gene or genotype 4a NS5A gene (based on Los Alamos HCV database isolates) respectively, were dispensed into 384-well plates. Compounds were re-suspended in DMSO at a concentration of 10 mM and serially diluted in DMSO either manually or using an automated pipeting instrument. Serially diluted compounds were mixed with cell culture media and added to the seeded cells. […] 72 hours later, cells were lysed and Renilla luciferase activity quantified as recommended by the manufacturer (Promega-Madison, Wis.). Non-linear regression was performed to calculate EC50 values.
On the technique in general: Replicon systems follow genome replication, usually without infectious particles.

The test system of experiment [2] is HCV 1b RLuc cells (dicistronic genotype 1b Con1 replicon, RLuc reporter). The settings on record: Hepatitis C virus, read-out: 1b (nM). The procedure: as §1
Experiment [3] concerns HCV 2a JFH-1 Rluc cells (dicistronic genotype 2a JFH-1 replicon, RLuc reporter). The settings on record: genotype 2a JFH-1 replicon, read-out: 2a JFH. The procedure:
as §1

The subject of experiment [4] is HCV 3a RLuc cells (NS5A chimeric genotype 1b Con1 replicon with consensus genotype 3a NS5A gene). The procedure: as §1
The mark [5] stands for this setting: Hepatitis C virus, RLuc reporter.
Where [6] appears, read: Hepatitis C virus, read-out: 3a, genotype 3a NS5A chimeric 1b Con1 replicon.
Where [7] appears, read: Hepatitis C virus, 72 h, Table 2, 72 hours.
[8] abbreviates: Hepatitis C virus, read-out: 3a, Table 2, genotype 3a NS5A chimeric replicon.
The mark [9] stands for this setting: Hepatitis C virus, 72 h, Table 1, 72 hours.

pEC50: −log10 of the molar value. Read-outs that look alike come from different tables or passages of the source. Some results are limits rather than exact numbers.

For `COC(=O)N[C@H](C(=O)N1Cc2ccccc2C1c1nc(-c2ccc(-c3ccc4cc(-c5cnc([C@@H]6CCCN6C(=O)[C@@H](NC(=O)OC)C(C)C)[nH]5)ccc4c3)cc2)c[nH]1)C(C)C` (stereo partly drawn) [Example 112], the pEC50 in experiment [1] (setting [5]) was 9.00 to 12.00; in experiment [3] (setting [5]) it was 7.36 to 9.00; in experiment [4] (setting [6]), < 8.30. The EC50 in experiment [2] amounted to 0.018 nM.

Regarding `COC(=O)NC(C(=O)N1CCC[C@H]1c1ncc(-c2ccc3cc(-c4ccc(-c5cnc([C@@H]6CCCN6C(=O)[C@@H](NC(=O)OC)C(C)C)[nH]5)cc4)ccc3c2)[nH]1)c1ccc(OC(F)(F)F)cc1` (stereo partly drawn) [Example 111], the pEC50 in experiment [1] (setting [5]) is 7.36 to 9.00; in experiment [3] (setting [5]), < 7.36; in experiment [4] (setting [6]) it was < 8.30. Besides, the EC50 in experiment [2] worked out at 0.16 nM.

As to `COC(=O)N[C@H](C(=O)N1CCC[C@H]1c1ncc(-c2ccc3cc(-c4ccc(-c5cnc([C@@H]6CCCN6C(=O)[C@H](NC(=O)OC)c6ccccc6C)[nH]5)cc4)ccc3c2)[nH]1)C(C)C` [Example 150], the pEC50 in experiment [1] (setting [5]), in experiment [3] (setting [5]) and in experiment [4] (setting [6]) was 9.00 to 12.00 throughout. The EC50 in experiment [2] came out at 0.006 nM.

Regarding `COC(=O)N[C@H](C(=O)N1CCC[C@H]1c1nc2ccc(-c3ccc(-c4ccc5c(c4)CCc4nc([C@@H]6CCCN6C(=O)[C@H](NC(=O)OC)c6ccccc6)[nH]c4-5)cc3)cc2[nH]1)C(C)C` [Example 166], the pEC50 in experiment [1] (setting [5]) was 7.36 to 9.00; in experiment [3] (setting [5]), 9.00 to 12.00; in experiment [4] (setting [6]), 9.00 to 12.00. For the same molecule, in experiment [2], the EC50 is 0.018 nM.

On to `COC(=O)N[C@H](C(=O)N1CCC[C@H]1c1ncc(-c2ccc3cc(-c4ccc(-c5cnc([C@@H]6CCCN6C(=O)[C@](C)(NC(=O)OC)c6ccccc6)[nH]5)cc4)ccc3c2)[nH]1)C(C)C` [Example 162], for which the pEC50 was 7.36 to 9.00 in experiment [1] (setting [5]), 7.36 to 9.00 in experiment [3] (setting [5]) and 8.30 to 9.00 in experiment [4] (setting [6]). For the same molecule, the EC50 in experiment [2] stood at 0.01 nM.

In the case of `COC(=O)N[C@H](C(=O)N1CCC[C@H]1c1ncc(-c2ccc3cc(-c4ccc(-c5cnc([C@@H]6CCCN6C(=O)[C@H](NC(=O)OC)c6ccccc6)[nH]5)cc4)ccc3c2)[nH]1)C(C)C` [Example 29], the pEC50 in experiment [1] (setting [7]), in experiment [3] (setting [7]) and in experiment [4] (setting [8]) was 9.00 to 12.00 throughout. Further, in experiment [2] (72 h), the EC50 worked out at 0.014 nM.

Consider `COC(=O)N[C@H](C(=O)N1CCC[C@H]1c1ncc(-c2ccc3cc(-c4ccc(-c5cnc([C@@H]6CCCN6C(=O)C(c6ccccc6)N(C)C)[nH]5)cc4)ccc3c2)[nH]1)C(C)C` (stereo partly drawn) [Example 134], for which the pEC50 in experiment [1] (setting [5]), in experiment [3] (setting [5]) and in experiment [4] (setting [6]) was 9.00 to 12.00 throughout. The EC50 in experiment [2] came out at 0.007 nM.

Consider `COC(=O)N[C@H](C(=O)N1CCC[C@H]1c1ncc(-c2ccc3cc(-c4ccc(-c5cnc([C@@H]6C[C@H](C)CN6C(=O)[C@H](NC(=O)OC)c6ccccc6)[nH]5)cc4)ccc3c2)[nH]1)C(C)C` [Example 32], for which the pEC50 in experiment [1] (setting [7]) is 9.00 to 12.00; in experiment [3] (setting [7]), 9.00 to 12.00; in experiment [4] (setting [8]) it was < 8.30. The EC50 in experiment [2] (72 h) is 0.02 nM.

In the case of `COC(=O)N[C@H](C(=O)N1CCC[C@H]1c1ncc(-c2ccc(-c3ccc4cc(-c5cnc([C@@H]6CCCN6C(=O)[C@H](NC(=O)OC)c6ccccc6)[nH]5)ccc4c3)cc2)[nH]1)C(C)C` [Example 30], the pEC50 in experiment [1] (setting [7]), in experiment [3] (setting [7]) and in experiment [4] (setting [8]) was 9.00 to 12.00 in each case. In experiment [2] (72 h), the EC50 amounted to 0.008 nM.

With `COC(=O)NC(C(=O)N1CC2(C[C@H]1c1nc3c([nH]1)-c1ccc(-c4ccc5c(ccc6nc([C@@H]7CCCN7C(=O)[C@@H](NC(=O)OC)C(C)C)[nH]c65)c4)cc1CC3)OCCO2)C1CCOCC1` (stereo partly drawn) [Example 87], the pEC50 in experiment [1] (setting [7]), in experiment [3] (setting [7]) and in experiment [4] (setting [8]) was 9.00 to 12.00 in each case. The EC50 in experiment [2] (72 h) was 0.163 nM.

Turning to `COC(=O)N[C@H](C(=O)N1CCC[C@H]1c1ncc(-c2ccc3cc(-c4ccc(-c5cnc([C@@H]6CC(=O)CN6C(=O)[C@@H](c6ccccc6)N(C)C)[nH]5)cc4)ccc3c2)[nH]1)C(C)C` [Example 34], the pEC50 in experiment [1] (setting [7]), in experiment [3] (setting [7]) and in experiment [4] (setting [8]) was 9.00 to 12.00 throughout. Besides, the EC50 in experiment [2] (72 h) stood at 0.018 nM.

With `COC(=O)N[C@H](C(=O)N1CCC[C@H]1c1ncc(-c2ccc3c(c2)CCc2cc(-c4ccc5nc([C@@H]6CCCN6C(=O)[C@H](NC(=O)OC)c6ccccc6)[nH]c5c4)ccc2-3)[nH]1)C(C)C` [Example 189], the pEC50 in experiment [1] (setting [5]), in experiment [3] (setting [5]) and in experiment [4] (setting [6]) was 9.00 to 12.00 in each case. For the same molecule, in experiment [2], the EC50 was 0.006 nM.

With `COC(=O)N[C@H](C(=O)N1C[C@H](C)C[C@H]1c1ncc(-c2ccc(-c3ccc4cc(-c5cnc([C@@H]6C[C@H](C#N)CN6C(=O)[C@H](NC(=O)OC)c6ccccc6)[nH]5)ccc4c3)cc2)[nH]1)C(C)C` [Example 113], the pEC50 in experiment [1] (setting [5]), in experiment [3] (setting [5]) and in experiment [4] (setting [6]) was 9.00 to 12.00 each time. In addition, in experiment [2], the EC50 was found to be 0.014 nM.

On to `COC(=O)NC(C(=O)N1C[C@H](C)C[C@H]1c1ncc(-c2ccc(-c3ccc4cc(-c5cnc([C@@H]6CCCN6C(=O)[C@@H](NC(=O)OC)C6CCOCC6)[nH]5)ccc4c3)cc2)[nH]1)c1cnccn1` (stereo partly drawn) [Example 254], for which the pEC50 in experiment [1] (setting [5]) and in experiment [3] (setting [5]) was 9.00 to 12.00 in each case. For the same molecule, the EC50 in experiment [2] amounted to 0.077 nM.

In the case of `COC(=O)N[C@H](C(=O)N1CCC[C@H]1c1ncc(-c2ccc3cc(-c4ccc(-c5cnc([C@@H]6CCCN6C(=O)[C@@H](NC(=O)OCc6ccccc6)C6CCSCC6)[nH]5)cc4)ccc3c2)[nH]1)C(C)C` [Example 276], the pEC50 in experiment [1] (RLuc reporter) and in experiment [3] (RLuc reporter) was < 7.36 each time.

As to `COC(=O)NC(C(=O)N1C[C@H](C)C[C@H]1c1ncc(-c2ccc(-c3ccc4cc(-c5cnc([C@@H]6CCCN6C(=O)[C@@H](NC(=O)OC)C(C)C)[nH]5)ccc4c3)cc2)[nH]1)c1cnccn1` (stereo partly drawn) [Example 255], the pEC50 in experiment [1] (setting [5]) was 9.00 to 12.00; in experiment [3] (setting [5]), 7.36 to 9.00. Further, in experiment [2], the EC50 was found to be 0.015 nM.

For `COC(=O)N[C@H](C(=O)N1CCC[C@H]1c1ncc(-c2ccc3c(c2)CCc2cc(-c4cnc([C@@H]5CCCN5C(=O)C(c5ccccc5)N(C)C)[nH]4)ccc2-3)[nH]1)C(C)C` (stereo partly drawn) [Example 190], in experiment [4] (setting [6]), the pEC50 is 9.00 to 12.00.

Regarding `COC(=O)NC(C(=O)N1CCC[C@@H]1c1ncc(-c2cc3c4c(c2)OCc2cc(-c5cnc([C@H]6CCCN6C(=O)[C@@H](NC(=O)OC)C(C)C)[nH]5)cc(c2-4)OC3)[nH]1)C(C)C` (stereo partly drawn) [Example 11], the pEC50 in experiment [1] (setting [9]) was 7.36 to 9.00; in experiment [3] (setting [9]) it was 9.00 to 12.00. For the same molecule, the EC50 in experiment [2] (72 h) turned out to be 0.258 nM.

Regarding `COC(=O)N[C@H](C(=O)N1CCC[C@H]1c1ncc(-c2ccc3cc(-c4ccc(-c5cnc([C@@H]6CCCN6C(=O)[C@H](NC(=O)OC(C)(C)C)c6ccccc6)[nH]5)cc4)ccc3c2)[nH]1)C(C)C` [Example 186], the pEC50 in experiment [1] (setting [5]) and in experiment [3] (setting [5]) was 9.00 to 12.00 each time. Besides, the EC50 in experiment [2] amounted to 0.004 nM.

`COC(=O)N[C@H](C(=O)N1CCC[C@H]1c1ncc(-c2ccc3cc(-c4ccc(-c5cnc([C@@H]6C[C@@H](F)CN6C(=O)[C@H](NC(=O)OC)c6ccccc6)[nH]5)cc4)ccc3c2)[nH]1)C(C)C` [Example 140]: the pEC50 in experiment [1] (RLuc reporter) was 9.00 to 12.00; in experiment [4] (read-out: 3a, genotype 3a NS5A chimeric 1b Con1 replicon) it was 9.00 to 12.00.

Source of the values: patent US10344019B2 (priority 2010, dated 2019).
